Measured values as given in publication PMC4248674 (Arthritis & rheumatology (Hoboken, N.J.), 2014).
pIC50: −log10 of the molar value. Square brackets hold non-standard residues; d marks the D form. Peptide text beside a SMILES is read from it. Cit = NC(=O)NCCC[C@H](N)C(=O)O

Molecular target: HLA-DR0401 protein (Homo sapiens, UniProt P01903+P01911, A100K/A169T/F76Y/I96L/K127E/L162R/M171V/N62H/P40V/Q125Y/R42H/S133A/S149N/S66Y/V115G/V209L/W38E)
Assay: Peptide competition binding assay against biotinylated HA306–318 on HLA-DR0401

SMILES | pIC50
C[C@H](NC(=O)[C@H](C)NC(=O)[C@H](CCCNC(N)=O)NC(=O)[C@H](C)NC(=O)[C@@H]1CCCN1C(=O)[C@H](CCCNC(N)=O)NC(=O)[C@H](C)NC(=O)[C@H](CCCNC(=N)N)NC(=O)[C@H](Cc1ccc(O)cc1)NC(=O)CN)C(=O)N[C@@H](C)C(=O)N[C@H](C(=O)O)[C@@H](C)O [Cit-Fib 1] (H-GYRA[Cit]PA[Cit]AAAT-OH) | 5.09
CC[C@H](C)[C@H](NC(=O)[C@H](CCCNC(N)=O)NC(=O)[C@@H](N)CCCCN)C(=O)N[C@@H](C)C(=O)N[C@@H](CCCCN)C(=O)N[C@@H](C)C(=O)N[C@H](C(=O)N[C@@H](CC(N)=O)C(=O)N[C@@H](CCC(=O)O)C(=O)N[C@@H](CCCCN)C(=O)N[C@@H](CO)C(=O)N[C@@H](CS)C(=O)N[C@@H](CC(N)=O)C(=O)N[C@@H](CS)C(=O)N[C@@H](CC(C)C)C(=O)O)C(C)C [Cit-α-enolase 4] (H-K[Cit]IAKAVNEKSCNCL-OH) | 5.72
CC[C@H](C)[C@H](NC(=O)[C@H](CCCNC(=N)N)NC(=O)[C@@H](N)CCCCN)C(=O)N[C@@H](C)C(=O)N[C@@H](CCCCN)C(=O)N[C@@H](C)C(=O)N[C@H](C(=O)N[C@@H](CC(N)=O)C(=O)N[C@@H](CCC(=O)O)C(=O)N[C@@H](CCCCN)C(=O)N[C@@H](CO)C(=O)N[C@@H](CS)C(=O)N[C@@H](CC(N)=O)C(=O)N[C@@H](CS)C(=O)N[C@@H](CC(C)C)C(=O)O)C(C)C [α-enolase 4] (H-KRIAKAVNEKSCNCL-OH) | 5.77

Second part, the molecule after the results:

pIC50 | SMILES
4.85 | CC(C)C[C@H](NC(=O)[C@H](CO)NC(=O)[C@H](CC(=O)O)NC(=O)[C@H](CC(C)C)NC(=O)[C@H](CC(N)=O)NC(=O)[C@@H](NC(=O)[C@H](CCC(=O)O)NC(=O)[C@H](CCCNC(N)=O)NC(=O)[C@H](CC(C)C)NC(=O)[C@H](CC(N)=O)NC(=O)[C@H](CC(C)C)NC(=O)[C@H](CO)NC(=O)[C@@H](N)CO)[C@@H](C)O)C(=O)O [Cit-Vim 2]
5.89 | CC(C)C[C@H](NC(=O)[C@H](CCCNC(N)=O)NC(=O)[C@@H](NC(=O)[C@H](C)NC(=O)[C@H](CO)NC(=O)[C@H](CO)NC(=O)[C@H](CCCNC(N)=O)NC(=O)[C@@H](NC(=O)[C@H](C)NC(=O)[C@H](Cc1ccc(O)cc1)NC(=O)[C@@H](NC(=O)CN)C(C)C)[C@@H](C)O)C(C)C)C(=O)N[C@@H](CCCNC(N)=O)C(=O)N[C@@H](CO)C(=O)N[C@@H](CO)C(=O)N[C@H](C(=O)N1CCC[C@H]1C(=O)NCC(=O)N[C@H](C(=O)N[C@@H](CCCNC(=N)N)C(=O)O)C(C)C)C(C)C [Cit-Vim 1] (H-GVYAT[Cit]SSAV[Cit]L[Cit]SSVPGVR-OH)
